This passage reports Ki results from ChEMBL document CHEMBL1133781, “High-pressure synthesis of enantiomerically pure C-6 substituted pyrazol” (Bioorg Med Chem Lett, 2001).

Chain of Adenosine receptor A2a (P30543 whole entry): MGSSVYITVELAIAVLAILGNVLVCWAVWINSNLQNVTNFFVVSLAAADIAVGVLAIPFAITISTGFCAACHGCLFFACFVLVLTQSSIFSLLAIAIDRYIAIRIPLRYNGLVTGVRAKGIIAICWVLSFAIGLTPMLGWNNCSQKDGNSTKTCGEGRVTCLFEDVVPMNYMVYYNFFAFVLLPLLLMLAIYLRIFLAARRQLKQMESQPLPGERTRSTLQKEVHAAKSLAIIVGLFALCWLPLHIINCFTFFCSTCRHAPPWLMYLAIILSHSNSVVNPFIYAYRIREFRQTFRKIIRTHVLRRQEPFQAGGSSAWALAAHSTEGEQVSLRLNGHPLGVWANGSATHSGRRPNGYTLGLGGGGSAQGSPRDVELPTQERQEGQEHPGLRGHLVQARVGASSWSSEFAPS

The first assay concerns the target T1, Adenosine receptor A1 (Rattus norvegicus, UniProt P25099).
T1 sequence (P25099 whole entry): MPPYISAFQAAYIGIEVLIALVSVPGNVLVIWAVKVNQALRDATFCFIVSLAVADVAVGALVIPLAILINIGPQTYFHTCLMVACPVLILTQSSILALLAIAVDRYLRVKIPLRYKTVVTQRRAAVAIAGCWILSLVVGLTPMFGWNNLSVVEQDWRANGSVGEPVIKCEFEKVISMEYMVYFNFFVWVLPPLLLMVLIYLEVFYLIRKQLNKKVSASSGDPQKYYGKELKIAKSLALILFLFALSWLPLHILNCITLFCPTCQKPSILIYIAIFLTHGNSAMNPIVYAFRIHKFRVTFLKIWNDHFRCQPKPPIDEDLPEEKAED
Kind of assay: Displacement of [3H]N6-PIA (Kd, 1 nM) binding from Adenosine A1 receptor in whole rat brain membranes. The class given is cell membranes. A general note: Loss of bound radioactivity is the signal in a displacement assay; it reports binding, not function.
By Ki is commonly meant the dissociation constant of the complex between target and ligand, obtained from inhibition or displacement. In turn, `CC(Nc1nc(N)c2cnn(-c3ccccc3)c2n1)C(N)=O` (racemic) had a Ki of 84 nM.
The same measure, in the same setting: then `C[C@H](Nc1nc(N)c2cnn(-c3ccccc3)c2n1)C(N)=O`, with 49.1 nM.
Still for that read-out and setting: as for `C[C@@H](Nc1nc(N)c2cnn(-c3ccccc3)c2n1)C(N)=O`, the figure is 486 nM.

A further assay has as its target Adenosine receptor A2a (Rattus norvegicus, UniProt P30543). The assay is described as follows: Displacement of [3H]CGS-21680 (Kd, 14.9 nM) from A2A receptor in rat striatal membranes. The class given is cell membranes, Membrane.
`CC(Nc1nc(N)c2cnn(-c3ccccc3)c2n1)C(N)=O` (racemic): the affinity, expressed as Ki, was 930 nM.
The same measure, in the same setting: then `C[C@H](Nc1nc(N)c2cnn(-c3ccccc3)c2n1)C(N)=O`, with 648 nM; and `C[C@@H](Nc1nc(N)c2cnn(-c3ccccc3)c2n1)C(N)=O`, with 2120 nM.
